Reference: US4894388A, “Glycosidase inhibitors and use thereof” (priority 1988, dated 1990)

Assays:
[1] = biological target: T1, β-D-mannosidase (Homo sapiens, UniProt O00462); assay: Inhibition of β-D-mannosidase in human liver extract; assay type: biochemical; conditions: 1 mM inhibitor; 0.5 mM substrate; optimal pH; mean of 2-4 determinations
T1 construct: The glycosidase activities in an extract of normal human liver were assayed; from tissue; host or cells: post mortem human liver, 37,000 g supernatant
T1 sequence (O00462 18-879): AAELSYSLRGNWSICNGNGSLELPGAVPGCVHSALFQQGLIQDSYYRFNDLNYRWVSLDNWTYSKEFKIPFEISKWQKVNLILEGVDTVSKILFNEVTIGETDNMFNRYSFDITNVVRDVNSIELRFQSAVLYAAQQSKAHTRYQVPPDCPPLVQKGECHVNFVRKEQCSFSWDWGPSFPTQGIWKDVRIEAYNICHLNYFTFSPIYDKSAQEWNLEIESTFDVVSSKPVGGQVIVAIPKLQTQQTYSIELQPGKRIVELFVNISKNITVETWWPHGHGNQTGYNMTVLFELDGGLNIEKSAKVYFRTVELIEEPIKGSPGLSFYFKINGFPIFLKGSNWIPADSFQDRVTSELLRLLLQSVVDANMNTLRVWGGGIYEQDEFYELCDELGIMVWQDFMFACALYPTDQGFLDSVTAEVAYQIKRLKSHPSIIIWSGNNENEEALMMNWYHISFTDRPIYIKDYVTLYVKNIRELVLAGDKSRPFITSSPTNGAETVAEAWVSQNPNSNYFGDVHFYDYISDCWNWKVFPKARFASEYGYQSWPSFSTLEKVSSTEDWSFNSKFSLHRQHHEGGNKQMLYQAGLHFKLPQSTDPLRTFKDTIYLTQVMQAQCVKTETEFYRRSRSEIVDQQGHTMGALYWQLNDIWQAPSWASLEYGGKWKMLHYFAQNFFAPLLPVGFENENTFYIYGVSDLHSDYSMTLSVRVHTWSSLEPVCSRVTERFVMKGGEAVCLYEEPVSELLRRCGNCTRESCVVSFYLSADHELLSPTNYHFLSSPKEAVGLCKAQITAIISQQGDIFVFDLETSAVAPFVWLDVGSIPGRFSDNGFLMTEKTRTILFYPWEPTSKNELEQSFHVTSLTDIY
Method: Post mortem human liver, which had been stored at -20° C. until required was homogenized in deionized water (50%, w/v) in a Potter-Elvehjem homogenizer and then centrifuged at 37,000 g for 30 min in an MSE 18 centrifuge. The resultant supernatant was used as the source of enzymic activities.
(§1) The glycosidase activities in an extract of normal human liver were assayed by using the appropriate fluorigenic 4-methylumbelliferyl glycoside substrate (Koch-Light, Haverhill, Suffolk, U.K.) with a concentration of 0.5 mM at the optimal pH of each enzyme [Burditt et al., Clin. Chim. Acta 140, 201-209 (1980)]. Human liver acidic (lysomal) and neutral (cystosolic) α-D-mannosidases were assayed similarly at their pH-optima, of 4.0 and 6.5, respectively, after separation by affinity chromatography on concanavalin A-Sepharose® (Pharmacia Ltd, Milton Keynes, Bucks, U.K.) [Phillips et al., Biochem. J. 153, 579-587 (1976)]. The residual intermediate (Golgi) α-mannosidase II activity in extracts of fibroblasts from a patient with the lysosomal storage disease, mannosidosis, was assayed at pH 5.75 using the synthetic substrate (Burditt et al, Ibid.). The specificity of the inhibitors was determined by assaying the glycosidases in the presence and absence of a 1 mM solution of each compound. The nature of the inhibition and the value of Ki were determined using the Dixon graphical procedure.
(§2) Enzymic activities were measured in the presence and absence of 1 mM inhibitor. Inhibition (%) was calculated as the fraction of activity lost in the presence of inhibitor. The values are means of two to four independent determinations.

[2] = biological target: T2, Golgi α-D-mannosidase II (Homo sapiens, UniProt Q16706); assay: Inhibition of Golgi α-D-mannosidase II in extracts of fibroblasts from a mannosidosis patient; assay type: biochemical; conditions: for inhibition at 1000 µM: 1 mM inhibitor, pH 5.75, mean of 2-4 determinations
T2 construct: activity in extracts of fibroblasts from a patient; endogenous in cells; host or cells: fibroblasts from a mannosidosis patient (extract)
T2 sequence (Q16706 1-1144): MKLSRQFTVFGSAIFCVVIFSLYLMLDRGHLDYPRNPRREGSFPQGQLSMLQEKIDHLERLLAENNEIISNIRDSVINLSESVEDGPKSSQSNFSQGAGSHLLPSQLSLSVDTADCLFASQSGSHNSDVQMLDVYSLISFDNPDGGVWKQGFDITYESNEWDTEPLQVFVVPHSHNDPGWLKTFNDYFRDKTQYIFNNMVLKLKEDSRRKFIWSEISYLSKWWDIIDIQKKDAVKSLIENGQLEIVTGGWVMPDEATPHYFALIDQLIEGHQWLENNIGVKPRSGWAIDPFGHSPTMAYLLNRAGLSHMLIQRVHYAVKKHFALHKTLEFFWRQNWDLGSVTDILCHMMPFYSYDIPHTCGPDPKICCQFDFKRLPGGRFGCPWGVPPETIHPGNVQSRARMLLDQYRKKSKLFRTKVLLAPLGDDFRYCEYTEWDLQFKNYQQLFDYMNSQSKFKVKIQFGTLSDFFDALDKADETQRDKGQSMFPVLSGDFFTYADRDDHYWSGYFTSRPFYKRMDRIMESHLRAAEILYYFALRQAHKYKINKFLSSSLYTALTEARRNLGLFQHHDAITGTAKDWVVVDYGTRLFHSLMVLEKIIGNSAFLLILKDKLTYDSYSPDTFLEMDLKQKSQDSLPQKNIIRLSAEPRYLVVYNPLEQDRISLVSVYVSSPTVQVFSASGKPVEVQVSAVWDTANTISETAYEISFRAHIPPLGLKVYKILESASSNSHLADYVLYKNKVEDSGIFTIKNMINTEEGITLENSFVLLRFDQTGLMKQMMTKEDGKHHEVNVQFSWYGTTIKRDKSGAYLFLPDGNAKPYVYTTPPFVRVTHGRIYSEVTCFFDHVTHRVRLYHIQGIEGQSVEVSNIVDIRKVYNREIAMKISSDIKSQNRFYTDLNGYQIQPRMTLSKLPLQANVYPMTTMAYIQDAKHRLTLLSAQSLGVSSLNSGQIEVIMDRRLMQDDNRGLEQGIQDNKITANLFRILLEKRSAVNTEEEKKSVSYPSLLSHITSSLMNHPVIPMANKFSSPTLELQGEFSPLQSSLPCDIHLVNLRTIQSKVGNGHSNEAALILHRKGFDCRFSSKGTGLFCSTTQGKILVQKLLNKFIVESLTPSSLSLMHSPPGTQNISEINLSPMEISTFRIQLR
Method: as §1, §2

SMILES | inhibition at 1000 µM [1] | inhibition at 1000 µM [2] | inhibition of α-D-mannosidase II (in words) [2]
CN1C[C@@H](O)[C@@H](O)[C@@H]1[C@@H](O)CO [N-methyl DIA, N-methyl-1,4-dideoxy-1,4-imino-L-allitol] | 4% | 33% | 
OC[C@H](O)[C@@H]1NC[C@@H](O)[C@H]1O [DIA, 1,4-dideoxy-1,4-imino-L-allitol] | 14% | 95% | potent inhibitor
OC[C@H](O)[C@H]1[C@H](O)[C@H](O)CN1Cc1ccccc1 [N-benzyl DIA, N-benzyl-1,4-dideoxy-1,4-imino-L-allitol] | 0% | 0% | 
